Measured values from US20120232251A1, “GLUCOSE SENSOR” (King's College London, priority 2009, published 2012).
pKd: −log10 of the molar value. Where two headings read alike, the source gives them in different places.

Columns and labels:
[1] = cited from earlier work
[2] = cited from earlier work; for fluorescence change: autofluorescence of the protein; for pKd: monitored by the autofluorescence of GBP [32], read-out: Kd for glucose
[3] = Steady-state fluorescence intensity response of badan-labelled GBP mutants to glucose in PBS; type: binding; conditions: for Δ Fluorescence (%) (maximal change in fluorescence intensity with addition of glucose) / Kd: badan-labelled GBP mutant; for Δ Fluorescence (%) (maximal change in fluorescence intensity with addition of glucose): PBS, saturating glucose; for Kd: in PBS, read-out: Kd (mM) binding constant for glucose; for change in fluorescence intensity on glucose addition (in words): increasing glucose, up to 1M
Method: (§1) To label GBP mutants with badan, 50 μM protein was dissolved in 5 mM Tris(2-carboxyethyl)phosphine in phosphate-buffered saline (PBS) pH 7.4, and then a 10-fold excess of dye (500 μM) was added and the mixture incubated overnight at 4° C., after which it was purified on a Sephadex G-25 gel-filtration column.
(§2) Steady-state fluorescence intensity was recorded on a Perkin-Elmer LS50B fluorimeter (Perkin Elmer Instruments, Beaconsfield, UK). The excitation and emission wavelengths of badan were 400 and 550 nm respectively. All data were obtained at room temperature using quartz cuvettes with sample volume of 100 μL. The labelled protein was incubated with increasing amounts of D-glucose for 15-20 min at room temperature before fluorescence was recorded.
(§3) The binding constant, Kd, was calculated from the sigmoidal dose-response curves using Prism 5 software (GraphPad, San Diego, Calif., USA). Lifetime values were obtained from fluorescence transients using the TR12 analysis package (courtesy of Dr. Paul Barber, Gray Cancer Institute of Radiation Oncology and Biology, Oxford University, Oxford, UK). Global analysis was applied to the entire data set of twelve transients as described for the H152C mutant previously.

[4] = Steady-state fluorescence intensity response of badan-labelled GBP mutant to glucose in serum; type: binding
Method: as §1
Venous blood samples from healthy volunteers were collected in Vacuette tubes. The specimens were incubated at room temperature for 4 days to allow blood clotting and glycolysis. The samples were then centrifuged at 3500 g for 20 min and serum removed, pooled and stored until use. The glucose concentrations of serum samples were determined using a hexokinase-based assay (Sigma).
as §2, with “All data were obtained at room temperature using quartz cuvettes with sample volume of 100 μL.” left out
as §3, with “Global analysis was applied to the entire data set of twelve transients as described for the H152C mutant previously.” left out

[5] = prior-art reports, read-out: Kd / binding constant for glucose

A213R: GBP having a single mutation of A213R (Amiss et al)
pKd ([1]; Amiss et al 2007, read-out: glucose affinity): ~3.00

D14E/F16A: GBP two-mutant D14E/F16A, monitored by autofluorescence (Sakaguchi-Mikami et al)
fluorescence change [2]: about 10% | pKd [2]: 2.41

E149C A213R L238S: GBP triple mutant coupled to the IANBD fluorophore (Amiss et al)
change in fluorescence intensity upon glucose binding (in words) ([1]; coupled to the IANBD fluorophore, Amiss et al): fifty percent

E149C/A213C/L238S(GGBP): GGBP triple mutant attached to Nile red (Thomas et al 2006)
change (maximal increase) in fluorescence intensity on addition of glucose ([1]; prior-art reports): 50% | change (maximal increase) in fluorescence intensity on addition of glucose ([1]; prior-art reports, listed as GBP attached to Nile red): about 50% | pKd [1, 5]: 2.15

E149C/A213S/L238S: GGBP triple mutant reported by Hsieh et al
pKd [1, 5]: 3.30

F16A: GBP mutant F16A, monitored by autofluorescence (Sakaguchi-Mikami et al)
fluorescence change [2]: about 10% | pKd [2]: 3.70

GBP: unmutated glucose/galactose binding protein of E. coli
pKd [2]: 6.70

H152C/A213R/L238S: E. coli glucose/galactose binding protein triple mutant labelled at cysteine 152 with badan
Δ Fluorescence (%) (maximal change in fluorescence intensity with addition of glucose) [3]: 200% | Kd [3]: 11 mM | Δ Fluorescence (%) (maximal change in fluorescence intensity with addition of glucose) [4]: 180% | Kd ([4]; read-out: Kd (mM) binding constant for glucose): 14 mM

H152C/A213R: GBP double mutant labelled at 152C with badan
Δ Fluorescence (%) (maximal change in fluorescence intensity with addition of glucose) [3]: ~500% | Kd [3]: 0.6 mM

H152C/F16A: GBP double mutant labelled at 152C with badan
binding of glucose (in words) ([3]; badan-labelled): abolished the binding of glucose | Δ Fluorescence (%) (maximal change in fluorescence intensity with addition of glucose) [3]: 0% | change in fluorescence intensity on glucose addition (in words) ([3]; badan-labelled, listed as F16A mutation with H152C): no change of fluorescence intensity | change in fluorescence intensity on glucose addition (in words) ([3]; badan-labelled, listed as F16A/H152C-badan): no change in fluorescence

H152C/L238S: GBP double mutant labelled at 152C with badan
Δ Fluorescence (%) (maximal change in fluorescence intensity with addition of glucose) [3]: 200% | Kd [3]: 0.6 mM

L238S: GBP mutant L238S previously reported
weakening of the binding of glucose to GBP ([1]; previously reported [31]): ten-fold

L255C: GGBP mutant L255C (Ge et al)
Kd / binding constant for glucose (in words) ([1]; prior-art reports): micromolar range

Q26C: GGBP with Gln at position 26 mutated to Cys (Tolosa et al)
Kd / binding constant for glucose (in words) ([1]; prior-art reports): micromolar range
